Reference: PubChem BioAssay (NCI)
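Tested at 5 concentrations; 48 h exposure; 96-well plates; endpoints linearly interpolated, else capped at highest concentration. Here, GI50 denotes the concentration required for 50% inhibition of growth. TGI: concentration producing complete growth inhibition.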

Key:
Experiment in all cases: DTP human tumour cell line panel, 48 h; in the data active means GI50 below about 0.43 µM; inactive means the rest
OVCAR-8 ovarian = test system: OVCAR-8 ovarian
SK-OV-3 ovarian = test system: SK-OV-3 ovarian
786-0 renal = test system: 786-0 renal
HCT-15 colon = test system: HCT-15 colon
SNB-19 CNS = test system: SNB-19 CNS
NCI-H23 lung = test system: NCI-H23 lung
MDA-MB-231 breast = test system: MDA-MB-231 breast
SF-268 CNS = test system: SF-268 CNS
PC-3 prostate = test system: PC-3 prostate
HOP-92 NSCLC = test system: HOP-92 NSCLC
SNB-75 CNS = test system: SNB-75 CNS
BT-549 breast = test system: BT-549 breast
HOP-62 NSCLC = test system: HOP-62 NSCLC
NCI-H460 lung = test system: NCI-H460 lung
U251 CNS = test system: U251 CNS
ACHN renal = test system: ACHN renal
A498 renal = test system: A498 renal
CCRF-CEM leukemia = test system: CCRF-CEM leukemia
MOLT-4 leukemia = test system: MOLT-4 leukemia
EKVX NSCLC = test system: EKVX NSCLC
M14 melanoma = test system: M14 melanoma
SK-MEL-5 melanoma = test system: SK-MEL-5 melanoma
NCI-H522 lung = test system: NCI-H522 lung
OVCAR-4 ovarian = test system: OVCAR-4 ovarian
UACC-257 melanoma = test system: UACC-257 melanoma
COLO 205 colon = test system: COLO 205 colon
NCI-H226 lung = test system: NCI-H226 lung
RXF 393 renal = test system: RXF 393 renal
SF-295 CNS = test system: SF-295 CNS
T-47D breast = test system: T-47D breast
HCT-116 colon = test system: HCT-116 colon
SK-MEL-28 melanoma = test system: SK-MEL-28 melanoma
OVCAR-5 ovarian = test system: OVCAR-5 ovarian
OVCAR-3 ovarian = test system: OVCAR-3 ovarian
UACC-62 melanoma = test system: UACC-62 melanoma
IGROV1 ovarian = test system: IGROV1 ovarian
SN12C renal = test system: SN12C renal
NCI/ADR-RES ovarian = test system: NCI/ADR-RES ovarian
HL-60(TB) leukemia = test system: HL-60(TB) leukemia
DU-145 prostate = test system: DU-145 prostate
KM12 colon = test system: KM12 colon
A549 NSCLC = test system: A549 NSCLC
HT29 colon = test system: HT29 colon
SF-539 CNS = test system: SF-539 CNS
SR leukemia = test system: SR leukemia
UO-31 renal = test system: UO-31 renal
MALME-3M melanoma = test system: MALME-3M melanoma
RPMI-8226 leukemia = test system: RPMI-8226 leukemia
K-562 leukemia = test system: K-562 leukemia
HCC-2998 colon = test system: HCC-2998 colon
TK-10 renal = test system: TK-10 renal
LOX IMVI melanoma = test system: LOX IMVI melanoma
MCF7 breast = test system: MCF7 breast
SW-620 colon = test system: SW-620 colon
HS 578T breast = test system: HS 578T breast

COc1ccc(N(C)c2nc(Cl)nc3ccn(C)c23)cc1
> 100 µM: TGI (OVCAR-8 ovarian) | TGI (SK-OV-3 ovarian) | TGI (786-0 renal) | TGI (HCT-15 colon) | TGI (SNB-19 CNS) | TGI (NCI-H23 lung) | TGI (MDA-MB-231 breast) | TGI (SF-268 CNS) | TGI (PC-3 prostate) | TGI (SNB-75 CNS) | TGI (BT-549 breast) | TGI (HOP-62 NSCLC) | TGI (NCI-H460 lung) | TGI (U251 CNS) | TGI (ACHN renal) | TGI (A498 renal) | TGI (CCRF-CEM leukemia) | TGI (MOLT-4 leukemia) | TGI (EKVX NSCLC) | TGI (M14 melanoma) | TGI (OVCAR-4 ovarian) | TGI (UACC-257 melanoma) | TGI (NCI-H226 lung) | TGI (RXF 393 renal) | TGI (SF-295 CNS) | TGI (T-47D breast) | TGI (HCT-116 colon) | TGI (SK-MEL-28 melanoma) | TGI (OVCAR-5 ovarian) | TGI (OVCAR-3 ovarian) | TGI (UACC-62 melanoma) | TGI (IGROV1 ovarian) | TGI (SN12C renal) | TGI (NCI/ADR-RES ovarian) | TGI (DU-145 prostate) | TGI (KM12 colon) | TGI (A549 NSCLC) | TGI (SF-539 CNS) | TGI (SR leukemia) | TGI (UO-31 renal) | TGI (MALME-3M melanoma) | TGI (RPMI-8226 leukemia) | TGI (K-562 leukemia) | TGI (HCC-2998 colon) | TGI (TK-10 renal) | TGI (LOX IMVI melanoma) | TGI (MCF7 breast) | TGI (SW-620 colon) | TGI (HS 578T breast)
67.5 µM: TGI (HOP-92 NSCLC)
0.12 µM: TGI (HT29 colon)
inactive: GI50 (HOP-92 NSCLC) 1.79 µM | GI50 (UACC-257 melanoma) > 100 µM | GI50 (NCI-H226 lung) > 100 µM | GI50 (T-47D breast) > 100 µM | GI50 (SK-MEL-28 melanoma) 5 µM | GI50 (OVCAR-5 ovarian) 7.54 µM | GI50 (MALME-3M melanoma) > 100 µM | GI50 (TK-10 renal) 91.3 µM
active: GI50 (OVCAR-8 ovarian) < 0.01 µM | GI50 (SK-OV-3 ovarian) < 0.01 µM | GI50 (786-0 renal) < 0.01 µM | GI50 (HCT-15 colon) < 0.01 µM | GI50 (SNB-19 CNS) < 0.01 µM | GI50 (NCI-H23 lung) < 0.01 µM | GI50 (MDA-MB-231 breast) < 0.01 µM | GI50 (SF-268 CNS) < 0.01 µM | GI50 (PC-3 prostate) < 0.01 µM | GI50 (SNB-75 CNS) < 0.01 µM | GI50 (BT-549 breast) < 0.01 µM | GI50 (HOP-62 NSCLC) < 0.01 µM | GI50 (NCI-H460 lung) < 0.01 µM | GI50 (U251 CNS) < 0.01 µM | GI50 (ACHN renal) < 0.01 µM | GI50 (A498 renal) < 0.01 µM | GI50 (CCRF-CEM leukemia) < 0.01 µM | GI50 (MOLT-4 leukemia) < 0.01 µM | GI50 (EKVX NSCLC) < 0.01 µM | GI50 (M14 melanoma) < 0.01 µM | GI50 (SK-MEL-5 melanoma) < 0.01 µM | GI50 (NCI-H522 lung) < 0.01 µM | GI50 (OVCAR-4 ovarian) < 0.01 µM | GI50 (COLO 205 colon) < 0.01 µM | GI50 (RXF 393 renal) < 0.01 µM | GI50 (SF-295 CNS) < 0.01 µM | GI50 (HCT-116 colon) < 0.01 µM | GI50 (OVCAR-3 ovarian) < 0.01 µM | GI50 (UACC-62 melanoma) < 0.01 µM | GI50 (IGROV1 ovarian) < 0.01 µM | GI50 (SN12C renal) < 0.01 µM | GI50 (NCI/ADR-RES ovarian) < 0.01 µM | GI50 (HL-60(TB) leukemia) < 0.01 µM | GI50 (DU-145 prostate) < 0.01 µM | GI50 (KM12 colon) < 0.01 µM | GI50 (A549 NSCLC) < 0.01 µM | GI50 (HT29 colon) < 0.01 µM | GI50 (SF-539 CNS) < 0.01 µM | GI50 (SR leukemia) < 0.01 µM | GI50 (UO-31 renal) 0.139 µM | GI50 (RPMI-8226 leukemia) < 0.01 µM | GI50 (K-562 leukemia) < 0.01 µM | GI50 (HCC-2998 colon) < 0.01 µM | GI50 (LOX IMVI melanoma) < 0.01 µM | GI50 (MCF7 breast) < 0.01 µM | GI50 (SW-620 colon) < 0.01 µM | GI50 (HS 578T breast) < 0.01 µM
< 0.01 µM: TGI (SK-MEL-5 melanoma) | TGI (NCI-H522 lung) | TGI (COLO 205 colon) | TGI (HL-60(TB) leukemia)
